{"source": "ChEMBL document CHEMBL1149078", "about": "“1,3,4-Oxadiazoline derivatives as novel potential inhibitors targeting chitin biosynthesis: design, synthesis and biological evaluation” (Bioorg Med Chem Lett, 2009)"}
{"system": "Saccharomyces cerevisiae", "test": "Inhibition of yeast chitin synthase at 250 uM", "units": {"inhibition": "%"}}
{"smiles": "CCCCC1(CCCC)OC(c2ccc(Cl)cc2Cl)=NN1C(=O)NC(=O)c1ccccc1Cl", "inhibition": 86}
{"smiles": "CCCCC1(CCCC)OC(c2cc(C)cc(C)c2)=NN1C(C)=O", "inhibition": 68}
{"smiles": "CCCCC1(CCCC)OC(c2ccccc2Cl)=NN1C(C)=O", "inhibition": 91}
{"smiles": "CCCCC1(CCCC)OC(c2ccc(Cl)cc2)=NN1C(C)=O", "inhibition": 69}
{"system": "not listed separately", "test": "Inhibition of yeast chitin synthase", "set-up": "species or system Saccharomyces cerevisiae", "units": {"IC50": "µM"}}
{"smiles": "CCCCC1(CCCC)OC(c2ccc(Cl)cc2Cl)=NN1C(=O)NC(=O)c1ccccc1Cl", "IC50": 5.6}
{"smiles": "CCCCC1(CCCC)OC(c2ccccc2Cl)=NN1C(C)=O", "IC50": 7.93}
